Test results: patent publication US12251383B2, “Methods and compositions for KRAS inhibitors” (The Board of Regents of the University of Texas System, priority 2019, dated 2025)
Entries after “also recorded” stand apart in the source; their conditions may differ. Where two headings read alike, the source gives them in different places.

How the values were obtained:
KRAS^G12D = experiment: Cell signaling (Western) in BHK cells expressing KRAS G12D; format: cell-based, hamster; settings: for IC50: Mesocricetus auratus, BHK, 3 h
Experimental: Cell signaling. The inhibitory potential of compounds was tested in monoclonal Baby Hamster Kidney (BHK) cell lines stably expressing monomeric green fluorescence protein (mGFP)-tagged KRAS^G12D, K-Ras^G12V and HRAS^G12V. Cells were cultured in Dulbecco's Modified Eagle Medium (DMEM, Hyclone) supplemented with 10% v/v bovine calf serum and incubated with compound or vehicle (DMSO) for 3 h without serum. Cells were then harvested in lysis buffer (50 mM Tris (pH 7.5), 75 mM NaCl, 25 mM NaF, 5 mM MgCl2, 5 mM EGTA, 1 mM dithiothreitol, 100 μM NaVO4, 1% Nonidet P40 plus protease inhibitors) and subjected to Western analysis controlling protein loading by BCA (bicinchoninic acid) assay. Lysates were resolved with Bio-Rad polyacrylamide TGX 10% gel, transferred to polyvinylidene fluoride (PVDF) membrane and immunoblotted using pan-AKT (2920S), GFP (2956S), pAKT^S473 (4060L), p-cRaf^S338 (9427S), p-ERK^T202/Y204 (4370L), ERK1/2 (4695S) or β-actin antibodies (Cell Signaling Technology). IC50 values were calculated with Prism 4-parameter fit.
Cell signaling assays identify compound 11 as a promising initial hit Western analysis was used to quickly assess the potential impact of the predicted hits on MAPK signaling, a major pathway mediated by KRAS. Specifically, ERK1/2 phosphorylation levels (p-ERK) were monitored in BHK cells stably expressing KRAS^G12D treated with vehicle (DMSO), the MEK inhibitor […] (U) or compound at four different concentrations (1-100 μM). […] Compounds 9 and 11 (structures for compounds 1-11 are provided in Appendix I, attached hereto), on the other hand, decreased p-ERK levels at concentrations ≥50 μM and ≥5 μM, respectively. To verify the latter observation, the experiments were repeated in an expanded concentration range starting from 0.1 μM. […] However, compound 9 (see Appendix I, attached hereto) increased p-ERK levels at 25 and 38 μM in contrast to the decrease observed at higher concentrations (FIG. S1B; see Appendix I, attached hereto).

KRAS = KRAS (Homo sapiens, UniProt P01116); experiment: Nucleotide release assay (intrinsic and SOS-mediated); format: biochemical
Experimental: (FIG. 6A) Chemical structure of compound 13, an analogue of 11 without a benzene on the pyrimidine core. (FIG. 6B) Predicted binding pose of compound 13. […] See legend of FIGS. 2A-2C for additional details. […] (FIG. 6D) Fluorescence polarization of ^BGTP-γ-SKRAS (0.5 μM) with increasing concentration of GST-Raf^RBD in the absence (red) and presence (green) of 20 μM compound 13. (FIG. 6E) Level of GFP-KRAS^G12D pulled down by GST-Raf^RBD after treatment of whole cell lysates with 10 μM of compound 13 (representative Western blots are shown at the top). The RBD sequence length was 1-149 in the fluorescence polarization assay (FIG. 6D) and 51-131 in the pull-down assay (FIG. 6E). (FIG. 6F) Intrinsic (red) and SOS-mediated (blue) nucleotide release rates were determined. Briefly, fluorescence intensity data obtained in a mixture of 0.5 μM KRAS (and SOS), 100 μM GTP and 0 or 50 μM of compound 13 (top), derived from the changes in during the reaction KRAS^BGDP+GTP→KRAS^GTP+BGDP (bottom). Rates were calculated using single exponential fits starting from 120 s, and are show in the inset to the right of the graph.
Nucleotide exchange and release assays. Loading of fluorescent-labeled GDP (BODIPY-GDP; BGDP from hereon) to KRAS was conducted following previous reports (23, 47), with minor modifications. Purified KRAS was buffer-exchanged in NAP-5 column (GE Life Sciences) in low Mg^2+ buffer (25 mM Tris pH 7.5, 50 mM NaCl, and 0.5 mM MgCl2). The eluate was incubated with 10-fold molar excess of BGDP (Life Technologies) in the presence of 5 mM EDTA and 1 mM DTT for 1.5 h at 20° C. in the dark. […] The concentration of ^BGDPKRAS was determined using Bradford assay and a BGDP standard curve. Then the effect of ligands on the intrinsic rate of nucleotide release was monitored using the decrease in fluorescence with time as BGDP dissociates from KRAS in a 100 μL reaction mixture (96-well plate) of 0.5 μM B^GDPKRAS, 100 μM GTP and varying concentrations of ligand (0 to 25 μM); GTP was added just before measurements. To measure the rate of SOS-mediated nucleotide release, 0.5 μM SOS (residues 564-1049, Cytoskeleton Inc) was added after adding GTP, and fluorescence was immediately read (excitation: 485 nm, emission: 510 nm) using Tecan Infinite M200 plate reader. Intrinsic and SOS-mediated nucleotide exchange rates were monitored with the fluorescence intensity increase of BGTP as it displaces GDP from KRAS. […] Experiments were conducted with minimal light and the reaction was monitored for 2 h at room temperature. Fluorescence intensities were normalized at 120 s and the traces were fit with linear or single exponential functions (Igor Pro, Wavemetrics).
The effect of compound 11 on intrinsic and GEF-dependent nucleotide release and exchange reactions was determined. […]

Chain of KRAS (P01116 1-188 isoform P01116-2): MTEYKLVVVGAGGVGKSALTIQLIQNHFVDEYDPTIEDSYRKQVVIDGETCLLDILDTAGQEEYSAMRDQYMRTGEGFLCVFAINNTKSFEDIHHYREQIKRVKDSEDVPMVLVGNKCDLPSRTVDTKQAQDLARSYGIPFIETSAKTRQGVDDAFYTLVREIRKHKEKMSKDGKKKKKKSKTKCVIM

Row | Compound | concentration at which p-ERK levels are decreased (KRAS^G12D; BHK KRAS^G12D) [µM] | effect on p-ERK levels (KRAS^G12D; BHK KRAS^G12D) | effect on p-cRaf levels (KRAS^G12D; BHK KRAS^G12D) | reduction of p-ERK levels (KRAS^G12D; BHK KRAS^G12D, at 5 μM) [%] | IC50 (KRAS^G12D; read-out: IC50 for p-ERK) [nM] | IC50 (KRAS^G12D; read-out: IC50 for p-cRaf) [nM] | effect on SOS-mediated nucleotide release rate (KRAS) | effect on intrinsic nucleotide release rate (KRAS) | effect on SOS-mediated nucleotide release rate (KRAS; 50 μM compound) | effect on intrinsic nucleotide release rate (KRAS; 50 μM compound)
1 | Cc1nn2c(N3CCN(CCO)CC3)cc(-c3ccccc3)nc2c1-c1ccccc1 [Compound 11, 2-[4-(8-methyl-3,9-diphenyl-2,6,7-triazabicyclo[4.3.0]nona-2,4,7,9-tetraen-5-yl)piperazin-1-yl]ethanol] | ≥ 5 | dose-dependently reduced; also recorded: dose-dependently decreases | dose-dependently reduced; also recorded: dose-dependently decreases | ~50 | 1300 | 700 | slightly reduced; also recorded: only modestly decreased | no effect |  | 
2 | Cc1cc(N2CCN(CCO)CC2)n2nc(C)c(-c3ccccc3)c2n1 [Compound 13] |  |  |  |  |  |  |  |  | dramatically increased | dramatically increased
